We go through seven compounds from ChEMBL document CHEMBL1158724, “Ipomoeassins A-E, cytotoxic macrocyclic glycoresins from the leaves of Ipomoea squamosa from the Suriname rainforest” (J Nat Prod, 2005).

The subject of the experiment is A2780. Description: Cytotoxicity against human A2780 cells. The experiment is classed as functional, cell-based.
As for `C/C=C(\C)C(=O)O[C@@H]1[C@@H](OC(C)=O)[C@@H]2O[C@H]3[C@H](O[C@@H](CCC)CCCCC[C@H](OC(C)=O)C(=O)CCC(=O)OC[C@@H](O2)[C@H]1OC(=O)/C=C/c1ccccc1)O[C@H](C)[C@H](OC(C)=O)[C@@H]3OC(C)=O`, half-maximal inhibition (IC50) required 19.1 µM.
For the compound `C/C=C(\C)C(=O)O[C@@H]1[C@@H](OC(C)=O)[C@@H]2O[C@H]3[C@H](O[C@@H](CCC)CCCCCCC(=O)CCC(=O)OC[C@@H](O2)[C@H]1OC(=O)/C=C/c1ccccc1)O[C@H](C)[C@H](OC(C)=O)[C@@H]3OC(C)=O`, 15.8 µM corresponded to half-maximal inhibition (IC50).
Compound `C/C=C(\C)C(=O)O[C@@H]1[C@@H](O)[C@@H]2O[C@H]3[C@H](O[C@@H](CCC)CCCCCCC(=O)CCC(=O)OC[C@@H](O2)[C@H]1OC(=O)/C=C/c1ccccc1)O[C@H](C)[C@H](OC(C)=O)[C@@H]3O` [IPOMOEASSIN A] showed a 50% inhibitory concentration (IC50) of 0.5 µM.
In turn, `C/C=C(\C)C(=O)O[C@@H]1[C@@H](O)[C@@H]2O[C@H]3[C@H](O[C@@H](CCC)CCCCCCC(=O)CCC(=O)OC[C@@H](O2)[C@H]1OC(=O)/C=C/c1ccccc1)O[C@H](C)[C@H](O)[C@@H]3O` [IPOMOEASSIN B] displayed an IC50 of 0.4 µM.
Turning to `C/C=C(\C)C(=O)O[C@@H]1[C@@H](O)[C@@H]2O[C@H]3[C@H](O[C@@H](CCC)CCCCC[C@H](O)C(=O)CCC(=O)OC[C@@H](O2)[C@H]1OC(=O)/C=C/c1ccccc1)O[C@H](C)[C@H](OC(C)=O)[C@@H]3O` [IPOMOEASSIN C], the half-inhibitory concentration (IC50) was determined as 2.9 µM.
Compound `C/C=C(\C)C(=O)O[C@@H]1[C@@H](O)[C@@H]2O[C@H]3[C@H](O[C@@H](CCC)CCCCC[C@H](OC(C)=O)C(=O)CCC(=O)OC[C@@H](O2)[C@H]1OC(=O)/C=C/c1ccccc1)O[C@H](C)[C@H](OC(C)=O)[C@@H]3O` [IPOMOEASSIN D] came in with a concentration for half-maximal inhibition (IC50) of 0.035 µM.
The figure for `C/C=C(\C)C(=O)O[C@@H]1[C@@H](O)[C@@H]2O[C@H]3[C@H](O[C@@H](CCC)CCCCC[C@H](OC(C)=O)C(=O)CCC(=O)OC[C@@H](O2)[C@H]1OC(=O)/C=C/c1ccccc1)O[C@H](C)[C@H](O)[C@@H]3O` [IPOMOEASSIN E] is 3.3 µM.

In general, IC50 refers to the concentration that gives 50% inhibition.
